Assay results: patent US11759461B2, “Small molecule inhibitors of cancer stem cells and mesenchymal cancer types” (The Scripps Research Institute, priority 2017, dated 2023)
Read-outs that look alike come from different tables or passages of the source.

Test system: FOXC2-expressing HMLER cells
Assay: Cell Titer Glo viability of FOXC2-HMLER cells (high throughput screen and 10-point response)
Type: cell-based
Conditions: Homo sapiens, 72 hours
Experimental: For high throughput screening, FOXC2-HMLER and HMLER cells were plated at 10^3 cells per well in white 384-well plates in 50 μL of MEGM medium (Lonza). Cells were allowed to attach for one hour before compound was transferred to each well as a DMSO solution using a 100 nL pintool head affixed to a PerkinElmer FX instrument. After 72-hour incubation, 30 μL of a Cell Titer Glo solution (diluted 1:6 in water, Promega) was dispensed into each well and luminance values were recorded using an Envision plate reader. […] All other miniaturized, selective viability experiments were performed as above using the indicated growth medium.
More specifically, in the high throughput screening assay above, each cell line was plated at 1,000 cells per well in 384-well plates, treated for 72 hours with 2 μM of test compound, and the viability of each line was determined in parallel by Cell Titer Glo (Promega) luminance measurements.

[1] = scored relative to parent compound 2, read-out: Activity Score, inhibition of FOXC2-expressing HMLER cells by Formula II compounds
[2] = scored relative to parent compound 4, read-out: Activity Score, inhibition of FOXC2-expressing HMLER cells by Formula IV compounds
[3] = scored relative to parent compound 3, read-out: Activity Score, inhibition of FOXC2-expressing HMLER cells by Formula III compounds
[4] = scored relative to parent compound 1, read-out: Activity Score, inhibition of FOXC2-expressing HMLER cells by Formula I compounds

Row | Compound | IC50 [1] | other results
1 | Cc1ccc(NCc2cc3cc4c(cc3n(CC(=O)Nc3cc(C)ccc3C)c2=O)OCCO4)cc1 [Compound 2CD] | > 20 µM | –
2 | CCOC(=O)c1ccc(NC(=O)Cn2c(=O)c(CNc3ccccc3)cc3ccc(OC)cc32)cc1 [Compound 2AQ] | > 20 µM | –
3 | COc1ccc(NCc2cc3cc(OC)c(OC)cc3n(CC(=O)Nc3ccccc3C)c2=O)cc1 [Compound 2EM] | > 20 µM | –
4 | COc1ccc2cc(CNc3ccc(C)cc3)c(=O)n(CC(=O)Nc3ccc(C)c(F)c3)c2c1 [Compound 2FI] | > 20 µM | –
5 | COc1ccc2cc(CNc3ccc(C)cc3)c(=O)n(CC(=O)NCc3ccc(C)cc3)c2c1 [Compound 2GP] | > 20 µM | –
6 | COc1ccc(NCc2cc3ccc(C)cc3n(CC(=O)Nc3ccccc3C)c2=O)cc1OC [Compound 2AJ] | 1 to 20 µM | –
7 | Cc1ccc(-n2nc(C)c(S(=O)(=O)N3CCN(c4ccccn4)CC3)c2C)cc1 [Compound 4AF] | – | IC50 [2]: > 20 µM
8 | CCc1ccc(NCc2cc3cc4c(cc3n(CC(=O)Nc3ccc(CC)cc3)c2=O)OCCO4)cc1 [Compound 2CI] | > 20 µM | –
9 | CCc1ccc(NCc2cc3ccc(OC)cc3n(CC(=O)Nc3ccc(C)cc3)c2=O)cc1 [Compound 2DT] | > 20 µM | –
10 | COc1ccc2cc(CNc3ccc(C)cc3)c(=O)n(CC(=O)Nc3cccc(SC)c3)c2c1 [Compound 2GH] | > 20 µM | –
11 | COc1ccc2cc(CNc3ccccc3)c(=O)n(CC(=O)Nc3ccc4c(c3)OCCO4)c2c1 [Compound 2EG] | > 20 µM | –
12 | COc1ccc(NCc2cc3cc4c(cc3n(CC(=O)Nc3ccc(C)c(C)c3)c2=O)OCCO4)cc1 [Compound 2GD] | > 20 µM | –
13 | Cc1ccc(C)c(NC(=O)Cn2c(=O)c(CNc3ccccc3)cc3cc4c(cc32)OCCO4)c1 [Compound 2FQ] | > 20 µM | –
14 | Cc1ccc(C(=O)NCCCN2CCc3ccccc3C2)cc1-n1nnc2cccnc21 [Compound 3BL] | – | IC50 [3]: > 20 µM
15 | COc1ccc2cc(CNc3ccc(C)cc3)c(=O)n(CC(=O)NCc3ccc(F)cc3)c2c1 [Compound 2DZ] | > 20 µM | –
16 | Cc1nn(-c2ccc(F)cc2)c(C)c1S(=O)(=O)N1CCN(c2ncccn2)CC1 [Compound 4K] | – | IC50 [2]: 1 to 20 µM
17 | Cc1ccc(C)c(N2CCN(CCCNC(=O)c3ccc(-n4nnc5cccnc54)cc3)CC2)c1 [Compound 3K] | – | IC50 [3]: 1 to 20 µM
18 | CCc1ccc(NCc2cc3cc(OC)c(OC)cc3n(CC(=O)Nc3ccc(C)cc3)c2=O)cc1 [Compound 2HR] | > 20 µM | –
19 | CCc1ccc(NCc2cc3cc4c(cc3n(CC(=O)Nc3cccc(OC)c3)c2=O)OCCO4)cc1 [Compound 2GA] | > 20 µM | –
20 | NC(=O)c1cccc(N2CCN(c3cnnc4c(Cl)cccc34)CC2)c1 [Compound 1SRV] | – | IC50 [4]: 1 to 20 µM
21 | COc1cc2cc(CNc3ccccc3)c(=O)n(CC(=O)Nc3ccccc3C)c2cc1OC [Compound 2CZ] | > 20 µM | –
22 | Cc1ccc(NCc2cc3cc4c(cc3n(CC(=O)Nc3ccc(C)cc3C)c2=O)OCCO4)cc1 [Compound 2EY] | > 20 µM | –
23 | FC(F)(F)c1cc(Cl)cc(N2CCN(c3cnnc4c(Cl)cccc34)CC2)c1 [Compound 1SRAJ] | – | IC50 [4]: 1 to 20 µM
24 | COc1ccc2c(c1)cc(CNc1ccc(OC)c(OC)c1)c(=O)n2CC(=O)Nc1ccc(C)cc1 [Compound 2HL] | > 20 µM | –
25 | COc1ccc2cc(CNc3ccccc3)c(=O)n(CC(=O)Nc3cccc(F)c3)c2c1 [Compound 2BR] | > 20 µM | –

Row | Compound | IC50 [1] | other results
26 | Cc1ccc(C)c(N2CCN(S(=O)(=O)c3c(C)nn(C)c3C)CC2)c1 [Compound 4D] | – | IC50 [2]: < 1 µM
27 | COc1cc(Cl)cc(N2CCN(c3cnnc4c(Cl)cccc34)CC2)c1 [Compound 1SRAH] | – | IC50 [4]: < 0.234 µM
28 | CCc1ccc(NCc2cc3ccc(OC)cc3n(CC(=O)Nc3ccccc3C)c2=O)cc1 [Compound 2CP] | > 20 µM | –
29 | COc1ccc2cc(CNc3ccc(C)cc3)c(=O)n(CC(=O)NCc3ccc(Cl)cc3)c2c1 [Compound 2HZ] | > 20 µM | –
30 | Clc1cc(Cl)cc(N2C[C@@H]3C[C@H]2CN3c2cnnc3c(Cl)cccc23)c1 [Compound 1SRAN] | – | IC50 [4]: < 1 µM
31 | COc1ccc2cc(CNc3ccc(C)cc3)c(=O)n(CC(=O)Nc3cc(Cl)ccc3C)c2c1 [Compound 2FC] | > 20 µM | –
32 | CCc1ccc(NCc2cc3cc4c(cc3n(CC(=O)Nc3ccccc3)c2=O)OCCO4)cc1 [Compound 2DW] | > 20 µM | –
33 | COc1ccc2cc(CNc3ccc(C)cc3)c(=O)n(CC(=O)Nc3cccc(C)c3)c2c1 [Compound 2EL] | > 20 µM | –
34 | Cc1cccc(N2CCN(S(=O)(=O)c3c(C)nn(C)c3C)CC2C)c1 (stereo not shown) [Compound 4O] | – | IC50 [2]: > 20 µM
35 | CCc1ccccc1NC(=O)Cn1c(=O)c(CNc2ccc(C)cc2)cc2cc3c(cc21)OCCO3 [Compound 2AF] | 1 to 20 µM | –
36 | COc1ccc2cc(CNc3ccc(C)cc3)c(=O)n(CC(=O)Nc3ccc(Cl)cc3)c2c1 [Compound 2Q] | 1 to 20 µM | –
37 | Cc1ccc(NCc2cc3cc4c(cc3n(CC(=O)Nc3ccccc3C)c2=O)OCCO4)cc1 [Compound 2AK] | 1 to 20 µM | –
38 | CCc1ccc(NCc2cc3cc4c(cc3n(CC(=O)Nc3c(C)cccc3C)c2=O)OCCO4)cc1 [Compound 2A] | < 1 µM | –
39 | Cc1ccc(-n2nc(C)c(S(=O)(=O)N3CCN(c4ccccc4)CC3)c2C)cc1 [Compound 4L] | – | IC50 [2]: 1 to 20 µM
40 | Cc1ccc(C(=O)NCc2ccc(N(C)C)cc2)cc1-n1nnc2cccnc21 [Compound 3BM] | – | IC50 [3]: > 20 µM
41 | Cc1ccc(-c2ccc(-n3nc(C)c(S(=O)(=O)N4CCN(C(C)C)CC4)c3C)nn2)cc1 [Compound 4AU] | – | IC50 [2]: > 20 µM
42 | COc1ccc(NC(=O)Cn2c(=O)c(CNc3ccccc3)cc3cc(OC)c(OC)cc32)cc1 [Compound 2DO] | > 20 µM | –
43 | COc1cc(NC(=O)Cn2c(=O)c(CNc3ccccc3)cc3ccc(OC)cc32)cc(OC)c1 [Compound 2GV] | > 20 µM | –
44 | Cc1nn(-c2ccc(-c3ccccc3)nn2)c(C)c1S(=O)(=O)N1CCN(c2ccccn2)CC1 [Compound 4AP] | – | IC50 [2]: > 20 µM
45 | COc1cccc(NC(=O)Cn2c(=O)c(CNc3ccc(C)cc3)cc3ccc(OC)cc32)c1 [Compound 2HX] | > 20 µM | –
46 | Cc1ccc(C)c(N2CCN(S(=O)(=O)c3c(C)nn(-c4ccc(F)cc4)c3C)CC2)c1 [Compound 4AA] | – | IC50 [2]: > 20 µM
47 | Cc1ccc(-c2cc(N3CCN(S(=O)(=O)c4cnn(C(F)F)c4C)CC3)ncn2)cc1 [Compound 4] | – | IC50 [2]: < 1 µM
48 | Cc1c(C(=O)NCCN(C)C2CCCCC2)cccc1-n1nnc2cccnc21 [Compound 3CF] | – | IC50 [3]: > 20 µM
49 | COc1ccc(NCc2cc3ccc(OC)cc3n(CC(=O)Nc3ccc(C)c(C)c3)c2=O)cc1 [Compound 2FX] | > 20 µM | –
50 | CCc1ccc(NCc2cc3ccc(OC)cc3n(CC(=O)NCc3ccccc3)c2=O)cc1 [Compound 2EA] | > 20 µM | –

Row | Compound | IC50 [1] | other results
51 | Cc1ccc(Cl)cc1N1CCN(C(=O)c2cccc(-n3nnc4cccnc43)c2)CC1 [Compound 3E] | – | IC50 [3]: < 1 µM
52 | Cc1ccc(Cl)cc1N1CCN(C(=O)c2cccc(-n3nnc4cccnc43)c2C)CC1 [Compound 3AD] | – | IC50 [3]: 1 to 20 µM
53 | COc1ccc2cc(CNc3ccc(C)cc3)c(=O)n(CC(=O)NCc3ccccc3)c2c1 [Compound 2GT] | > 20 µM | –
54 | COc1ccc(NCc2cc3ccc(OC)cc3n(CC(=O)Nc3ccccc3C)c2=O)cc1 [Compound 2BV] | > 20 µM | –
55 | Cc1cc(C(=O)Nc2cccc(CN3CCCC3)c2)ccc1-n1nnc2cccnc21 [Compound 3O] | – | IC50 [3]: 1 to 20 µM
56 | Cc1cc(C(=O)N2CCC(C)CC2)ccc1-n1nnc2cccnc21 [Compound 3AQ] | – | IC50 [3]: > 20 µM
57 | COc1ccc2cc(CNc3ccccc3)c(=O)n(CC(=O)Nc3cccc(C)c3)c2c1 [Compound 2ED] | > 20 µM | –
58 | Cc1cc(Cl)cc(N2CCN(c3cnnc4c(Cl)cccc34)CC2)c1 [Compound 1SRAI] | – | IC50 [4]: < 1 µM
59 | Cc1ccc(C(=O)NCc2ccccc2)cc1-n1nnc2cccnc21 [Compound 3BB] | – | IC50 [3]: > 20 µM
60 | Cc1cccc(N2CCN(C(=O)c3cccc(-n4nnc5cccnc54)c3C)CC2C)c1 (stereo not shown) [Compound 3] | – | IC50 [3]: < 1 µM
61 | COc1ccc(NC(=O)c2ccccc2NC(=O)CN2C(=O)c3ccccc3C2=O)cc1 [Compound 2HM] | > 20 µM | –
62 | COc1ccc2cc(CNc3ccc(C)cc3)c(=O)n(CC(=O)Nc3c(C)cc(C)cc3C)c2c1 [Compound 2K] | 1 to 20 µM | –
63 | Cc1ccc(C(=O)N(C)Cc2ccccc2)cc1-n1nnc2cccnc21 [Compound 3BC] | – | IC50 [3]: > 20 µM
64 | Clc1cc(Cl)cc(N2CCN(c3cnnc4c(Cl)cccc34)CC2)c1 [Compound 1SRH] | – | IC50 [4]: < 0.234 µM
65 | COc1ccc2cc(CNc3ccccc3)c(=O)n(CC(=O)Nc3ccc(C(C)=O)cc3)c2c1 [Compound 2CX] | > 20 µM | –
66 | Cc1c(S(=O)(=O)N2CCN(c3cc(-c4cccc(F)c4)ncn3)CC2)cnn1C(F)F [Compound 4A] | – | IC50 [2]: < 1 µM
67 | Cc1ccc(C)c(N2CCN(C(=O)c3ccc(-n4nnc5cccnc54)cc3)CC2)c1 [Compound 3G] | – | IC50 [3]: 1 to 20 µM
68 | CCc1ccc(NCc2cc3ccc(OC)cc3n(CC(=O)Nc3ccc(F)cc3)c2=O)cc1 [Compound 2HK] | > 20 µM | –
69 | COc1ccc(NCc2cc3ccc(OC)cc3n(CC(=O)Nc3ccccc3F)c2=O)cc1 [Compound 2AT] | > 20 µM | –
70 | COc1ccc2cc(CNc3ccc(C)cc3)c(=O)n(CC(=O)Nc3ccccc3)c2c1 [Compound 2FV] | > 20 µM | –
71 | COc1ccccc1NC(=O)Cn1c(=O)c(CNc2ccccc2)cc2cc(OC)c(OC)cc21 [Compound 2ES] | > 20 µM | –
72 | COc1ccc2cc(CNc3ccc(C)cc3)c(=O)n(CC(=O)Nc3ccc(C)cc3C)c2c1 [Compound 2AC] | 1 to 20 µM | –
73 | Cc1ccccc1CNC(=O)c1cccc(-n2nnc3cccnc32)c1C [Compound 3CI] | – | IC50 [3]: > 20 µM
